Measured values reported in ChEMBL document CHEMBL3217605, “Synthesis, microbial transformation, and pharmacological evaluation of 4,5-dihydronaphtho[2,1-b]furan-2-ones and related analogues” (Medchemcomm, 2013).
pIC50: −log10 of the molar value. The source made the active and inactive calls. No cut-off for these calls is given here.

Columns and labels:
Microglia [1] = test: Anti-neuroinflammatory activity in LPS-induced activated rat Microglia cells assessed as reduction in TXB2 release at 10 uM; type: functional
MDA-MB-231 [2] = test: Antimigratory activity against human MDA-MB-231 cells assessed cell migration level at 30 uM by wound healing assay; type: functional
Microglia [3] = test: Anti-neuroinflammatory activity in LPS-induced activated rat Microglia cells assessed as reduction in super oxide anion radical generation at 10 uM; type: functional
[4] = Toxicity in LPS-induced activated rat Microglia cells assessed as LDH release at 0.1 to 10 uM
MDA-MB-231 [5] = test: Cytotoxicity against human MDA-MB-231 cells at 10 to 30 uM; type: cell-based; settings: mda-mb-231, 30 µM
MDA-MB-231 [6] = test: Antimigratory activity against human MDA-MB-231 cells assessed cell migration level at 10 uM by wound healing assay; type: functional
[7] = Toxicity in LPS-induced activated rat Microglia cells assessed as LDH release at 10 uM
SK-MEL-5 = test: Growth inhibition of human SK-MEL-5 cells assessed as cell growth at 10 uM after 48 hrs by SRB assay; type: functional; settings: SK-MEL-5, 48 h, read-out: Activity
[8] = Growth inhibition of human NCI60 cells assessed as mean cell growth at 10 uM after 48 hrs by SRB assay; type: functional; parameters: scale not given: the % may be the effect or the level left
M14 = test: Growth inhibition of human M14 cells assessed as cell growth at 10 uM after 48 hrs by SRB assay; type: functional; settings: M14, 48 h, read-out: Activity
[9] = Growth inhibition of human UACC62 cells assessed as cell growth at 10 uM after 48 hrs by SRB assay; type: functional; settings: UACC-62, 48 h, read-out: Activity
RPMI-8226 = test: Growth inhibition of human RPMI8226 cells assessed as cell growth at 10 uM after 48 hrs by SRB assay; type: functional; settings: RPMI-8226, 48 h, read-out: Activity
T47D = test: Growth inhibition of human T47D cells assessed as cell growth at 10 uM after 48 hrs by SRB assay; type: functional; settings: read-out: Activity
K562 = test: Growth inhibition of human K562 cells assessed as cell growth at 10 uM after 48 hrs by SRB assay; type: functional; settings: K562, 48 h, read-out: Activity
MDA-MB-468 = test: Growth inhibition of human MDA-MB-468 cells assessed as cell growth at 10 uM after 48 hrs by SRB assay; type: functional; settings: MDA-MB-468, 48 h, read-out: Activity
Malme-3M = test: Growth inhibition of human MALME-3M cells assessed as cell growth at 10 uM after 48 hrs by SRB assay; type: functional; settings: read-out: Activity
MCF7 = test: Growth inhibition of human MCF7 cells assessed as cell growth at 10 uM after 48 hrs by SRB assay; type: functional; settings: MCF7, 48 h, read-out: Activity
HL-60(TB) = test: Growth inhibition of human HL-60(TB) cells assessed as cell growth at 10 uM after 48 hrs by SRB assay; type: functional; settings: HL-60, 48 h, read-out: Activity
PC-3 = test: Growth inhibition of human PC3 cells assessed as cell growth at 10 uM after 48 hrs by SRB assay; type: functional; settings: PC-3, 48 h, read-out: Activity
[10] = Anti-neuroinflammatory activity in LPS-induced activated rat Microglia cells assessed as reduction in TXB2 release; type: functional
[11] = Anti-neuroinflammatory activity in LPS-induced activated rat Microglia cells assessed as reduction in super oxide anion radical generation; type: functional

| Structure (SMILES) | inhibition (Microglia [1]) | Activity (MDA-MB-231 [2]) [%] | inhibition (Microglia [3]) | Activity [4] | Activity (MDA-MB-231 [5]) | Activity (MDA-MB-231 [6]) [%] | also measured |
| --- | --- | --- | --- | --- | --- | --- | --- |
| COc1ccc2c(c1)[C@@H]1[C@H](CC2)OC(=O)[C@H]1c1ccccc1 (relative stereo) | inactive | 45.7 | inactive | Non-toxic | Non-toxic | 100 |  |
| COc1ccc2c(c1)C1=C(C)C(=O)OC1C[C@H]2O (some centres undefined) | inactive | 42.5 | inactive | Non-toxic | Non-toxic | 51.6 |  |
| COc1ccc2c(c1)C1=C(c3ccccc3)C(=O)OC1C[C@H]2O (some centres undefined) | inactive | 45.9 | inactive | Non-toxic | Non-toxic | 54.4 |  |
| COc1cccc2c1CCC1OC(=O)C(C)=C21 (centres undefined) |  |  |  |  |  |  | Activity [7]: Toxic |
| COc1ccc2c(c1)[C@@H]1[C@H](CC2)OC(=O)[C@@H]1c1ccccc1 (relative stereo) | inactive | 48.4 | inactive | Non-toxic | Non-toxic | 90.7 |  |
| COc1cccc2c1CC[C@@H]1OC(=O)[C@H](C)[C@H]21 | inactive | 68.4 | inactive | Non-toxic | Non-toxic | 87.6 |  |
| COc1ccc2c(c1)C1=C(C)C(=O)OC1CC2 (centres undefined) | inactive | 47.8 | inactive | Non-toxic | Non-toxic | 71.4 | growth at 10 µM (SK-MEL-5): 65.8%; Activity [8]: 73.9%; growth at 10 µM (M14): 63.7%; growth at 10 µM [9]: 57.1%; growth at 10 µM (RPMI-8226): 20.7%; growth at 10 µM (T47D): 64.3%; growth at 10 µM (K562): 54.2%; growth at 10 µM (MDA-MB-468): 40.8%; growth at 10 µM (Malme-3M): 35.4%; growth at 10 µM (MCF7): 65.2%; growth at 10 µM (HL-60(TB)): 74.2%; growth at 10 µM (PC-3): 43% |
| NC(=O)Cc1ccccc1 | inactive | 70.4 | inactive | Non-toxic | Non-toxic | 94.5 |  |
| COc1ccc2c(c1)C1=C(c3ccccc3)C(=O)OC1CC2 (centres undefined) |  | 53.2 | inactive | Non-toxic | Non-toxic | 76.7 | growth at 10 µM (SK-MEL-5): 48.7%; Activity [8]: 65.7%; growth at 10 µM (M14): 64.9%; growth at 10 µM [9]: 35.4%; growth at 10 µM (RPMI-8226): 18.1%; growth at 10 µM (T47D): 30.9%; growth at 10 µM (K562): 42.1%; growth at 10 µM (MDA-MB-468): 27.4%; growth at 10 µM (Malme-3M): 35.9%; growth at 10 µM (MCF7): 59.5%; growth at 10 µM (HL-60(TB)): 53%; pIC50 [10]: 6.00; growth at 10 µM (PC-3): 32% |
| COc1ccc2c(c1)C1=C(CO)C(=O)OC1CC2 (centres undefined) | inactive | 61 | inactive | Non-toxic | Non-toxic | 81.8 |  |
| C=CCN1C(=O)C(c2ccccc2)=C2c3cc(OC)ccc3CCC21 (centres undefined) | inactive | 32.9 | inactive | Non-toxic | Non-toxic | 47.8 | growth at 10 µM (SK-MEL-5): 40.9%; Activity [8]: 59.8%; growth at 10 µM (M14): 46.7%; growth at 10 µM [9]: 35.3%; growth at 10 µM (RPMI-8226): 11.5%; growth at 10 µM (T47D): 40.7%; growth at 10 µM (K562): 28.3%; growth at 10 µM (MDA-MB-468): 36.3%; pIC50 [11]: 6.00; growth at 10 µM (Malme-3M): 0.19%; growth at 10 µM (MCF7): 61.5%; growth at 10 µM (HL-60(TB)): 34.9%; pIC50 [10]: 6.00; growth at 10 µM (PC-3): 25.7% |
